Test results reported in PubChem BioAssay (NCI).
Values joined by “and” are separate entries in the source; they are usually repeats but may differ in a detail not shown here. Equal values may be shown once.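 Results reflect a 48-hour exposure of cells in 96-well plates to compound at five concentrations. Abbreviation: GI50, concentration required for 50% inhibition of growth. The concentration for full growth arrest is given as TGI.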

Columns and labels:
Assay in all cases: NCI-60 cell line screen, 48 h
786-0 renal = tested on: 786-0 renal
HCT-116 colon = tested on: HCT-116 colon
HT29 colon = tested on: HT29 colon
NCI-H226 lung = tested on: NCI-H226 lung
NCI-H460 lung = tested on: NCI-H460 lung
OVCAR-5 ovarian = tested on: OVCAR-5 ovarian
OVCAR-8 ovarian = tested on: OVCAR-8 ovarian
SK-OV-3 ovarian = tested on: SK-OV-3 ovarian
UACC-62 melanoma = tested on: UACC-62 melanoma
UO-31 renal = tested on: UO-31 renal

| Structure (SMILES) | GI50 (786-0 renal) | TGI (786-0 renal) | GI50 (HCT-116 colon) | TGI (HCT-116 colon) | GI50 (HT29 colon) | TGI (HT29 colon) | GI50 (NCI-H226 lung) | TGI (NCI-H226 lung) | GI50 (NCI-H460 lung) | TGI (NCI-H460 lung) | GI50 (OVCAR-5 ovarian) | TGI (OVCAR-5 ovarian) | GI50 (OVCAR-8 ovarian) | TGI (OVCAR-8 ovarian) | GI50 (SK-OV-3 ovarian) | TGI (SK-OV-3 ovarian) | GI50 (UACC-62 melanoma) | TGI (UACC-62 melanoma) | GI50 (UO-31 renal) | TGI (UO-31 renal) |
| --- | --- | --- | --- | --- | --- | --- | --- | --- | --- | --- | --- | --- | --- | --- | --- | --- | --- | --- | --- | --- |
| COc1ccncc1C#Cc1cncc(C(=O)Nc2ccc(CN3CCN(C)CC3)c(C(F)(F)F)c2)c1 | 35.8 µM | > 100 µM | 6.72 µM | > 100 µM | 9.33 µM | > 100 µM | 4.6 µM | > 100 µM | 16.1 µM | 71 µM | 23 µM | > 100 µM | 27.1 µM | > 100 µM | 28.9 µM | > 100 µM | 13.6 µM | > 100 µM | 15.4 µM | > 100 µM |
| COc1ccc(-c2oc(=O)ccc2-c2cc(OC)c(OC)c(OC)c2)cc1F | 36.4 µM | > 100 µM | 10.9 µM | > 100 µM | 4.93 µM | > 100 µM | 66.4 µM | > 100 µM | 5.43 µM | > 100 µM | 35.6 µM | > 100 µM | 24.1 µM | > 100 µM | 80 µM | > 100 µM | 10.2 µM | > 100 µM | 8.79 µM | 35.8 µM |
| Cc1ccc(Cl)cc1Nc1nc(C(F)(F)F)ccc1C(=O)N1CCN(c2cccc(Cl)c2)CC1 | > 100 µM | > 100 µM | 37.9 µM | > 100 µM | > 100 µM | > 100 µM | > 100 µM | > 100 µM | 90.1 µM | > 100 µM | > 100 µM | > 100 µM | > 100 µM | > 100 µM | > 100 µM | > 100 µM | 69.4 µM | > 100 µM | 24.8 µM | > 100 µM |
| COC(=O)[C@]1(C)CCCC2(C)C1CC[C@H]1C=C(C)[C@H]3CCC12C3 (stereo not given in full) |  | > 100 µM |  | > 100 µM |  | > 100 µM |  | > 100 µM |  | > 100 µM |  | > 100 µM |  | > 100 µM |  | > 100 µM |  | > 100 µM |  | > 100 µM |
| CCCNC(=S)/N=C/c1c(O)c2ccccc2[nH]c1=O |  | > 100 µM |  | > 100 µM |  | > 100 µM |  | > 100 µM |  | > 100 µM |  | > 100 µM |  | > 100 µM |  | > 100 µM |  | > 100 µM |  | > 100 µM |
| CC(C)=CCc1cc(O)cc2c1OC(C=C(C)C)C1=C2C(=O)C2=C(NCCS2(=O)=O)C1=O (stereo not given) | 2.93 µM | 7.11 µM | 0.611 µM | 2.45 µM | 1.95 µM | 7.24 µM | 2.06 µM | 5.34 µM | 1.2 µM | 4.28 µM | 3.72 µM | 7.01 µM | 3.24 µM | 8.71 µM | 3.8 µM | 10.4 µM | 0.875 µM | 3.5 µM | 2.03 µM | 6.05 µM |
| CC(=O)O[C@H]1CCC2[C@@H]3CCC4=C(O)c5nocc5C[C@]4(C)C3CC[C@@]21C (stereo not given in full) |  | > 100 µM |  | > 100 µM |  | > 100 µM |  | > 100 µM |  | > 100 µM |  | > 100 µM |  | > 100 µM |  | > 100 µM |  | > 100 µM |  | > 100 µM |
| O=C(c1ccc(Cl)cc1)c1cnc(Nc2ccccc2Cl)s1 |  | 39.1 µM |  | 41.7 µM |  | > 100 µM |  | > 64.3 µM |  | > 59.8 µM |  | 95.5 µM |  | > 71.1 µM |  | 52 µM |  | 66.4 µM |  | 50.1 µM |
| CCOc1ccc2nc(S/C(=C/C=C(C#N)C#N)c3ccc(C)cc3)sc2c1 | 21.9 µM | 46.8 µM | 17.3 µM | 31.6 µM | 4.71 µM | > 100 µM | 20.3 µM | 42.4 µM | 22.7 µM | 57.9 µM | 57.5 µM | > 100 µM | 32.8 µM | > 100 µM | > 100 µM | > 100 µM | 22 µM | 54.1 µM | 36.2 µM | > 100 µM |
| Cc1ccc(NC(=O)C2C(=O)N(c3ccc(C)c(C)c3)C(=O)C2N=N)cc1C (stereo not given) |  | > 100 µM |  | > 100 µM |  | > 100 µM |  | > 100 µM |  | > 100 µM |  | > 100 µM |  | > 100 µM |  | > 100 µM |  | > 100 µM |  | > 100 µM |
| CCCn1c(N)c(C(=O)N/N=C(/C)c2cc3cccc(OC)c3o2)sc1=S | 25.5 µM | 51.6 µM | 17.4 µM | > 100 µM | 16.4 µM | > 100 µM | 45.2 µM | > 100 µM | 17.7 µM | > 100 µM | > 100 µM | > 100 µM | 13.8 µM | > 100 µM | 65.4 µM | > 100 µM | 34.6 µM | > 100 µM | 27.7 µM | > 100 µM |
| C=CC(=O)N1CCC(C2CCNc3c(C(N)=O)c(-c4ccc(Oc5ccccc5)cc4)nn32)CC1 (stereo not given) | 12.2 µM | > 100 µM | 17.6 µM | 39.5 µM | 16.6 µM | 55.8 µM | 11.1 µM | 69.4 µM | 31.4 µM | > 100 µM | 31.2 µM | > 100 µM | 16.9 µM | 59.2 µM | 0.572 µM | 5.33 µM | 10.6 µM | 27 µM | 1.94 µM | 24.3 µM |
| O=C1[C@@H]2C3c4ccccc4C([C@@H]2C(=O)N1c1ccccc1)S3(=O)=O |  | > 100 µM |  | > 100 µM |  | > 100 µM |  | > 100 µM |  | > 100 µM |  | > 100 µM |  | > 100 µM |  | > 100 µM |  | > 100 µM |  | > 100 µM |
| Cc1[nH]c2ccccc2c1-c1cc(-c2cc(-c3c(C)[nH]c4ccccc34)on2)no1 |  | > 100 µM |  | > 100 µM |  | > 100 µM |  | > 100 µM |  | > 100 µM |  | > 100 µM |  | > 100 µM |  | > 100 µM |  | > 100 µM |  | > 100 µM |
| O=c1[nH]cc(COCCO)c(=O)[nH]1 |  | > 100 µM |  | > 100 µM |  | > 100 µM |  | > 100 µM |  | > 100 µM |  | > 100 µM |  | > 100 µM |  | > 100 µM |  | > 100 µM |  | > 100 µM |
| CC(=O)c1cc2c(o1)C(=O)c1ccccc1C2=O | 0.381 µM and 1.21 µM | 1.02 µM and 2.71 µM | 0.226 µM and 0.267 µM | 0.544 µM and 0.805 µM | 0.226 µM and 0.276 µM | 0.529 µM and 0.756 µM | 0.226 µM and 0.212 µM | 0.5 µM and 0.472 µM | 0.21 µM and 0.194 µM | 0.422 µM and 0.375 µM | 0.181 µM and 0.186 µM | 0.346 µM and 0.345 µM | 0.411 µM and 0.378 µM | 1.32 µM and 1.53 µM | 1.41 µM and 1.78 µM | 2.86 µM and 3.3 µM | 0.229 µM and 0.178 µM | 0.476 µM and 0.335 µM | 0.219 µM and 0.217 µM | 0.57 µM and 0.531 µM |
